Results: the supplement of paper PMC10307832

Tests used:
Test in all cases: relative viability (nuclei count vs DMSO), 5 days (fraction); higher = more cells survive
NCI-H1755 = system: NCI-H1755
How it was run: (§1)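 The day after seeding in 1536-well plates, lung cancer cell lines were treated by pin tool with a single drug, or with a fixed anchor-drug dose together with five library-drug doses (not always all listed) in √10 steps. After 5 days, a combined fix-and-stain solution (final 0.05% Triton X-100, 1% formaldehyde, 1 ug/ml Hoechst) was added. Nuclei counted on 4× images gave relative viability as treated counts over vehicle counts, reported as the median of duplicate plates.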

EMC-BAC-2 = system: EMC-BAC-2
How it was run: as §1

LK-2 = system: LK-2
How it was run: as §1

NCI-H2228 = system: NCI-H2228
How it was run: as §1

NCI-H1944 = system: NCI-H1944
How it was run: as §1

NCI-H2347 = system: NCI-H2347
How it was run: as §1

NCI-H661 = system: NCI-H661
How it was run: as §1

LXF-289 = system: LXF-289
How it was run: as §1

NCI-H1915 = system: NCI-H1915
How it was run: as §1

CAL-12T = system: CAL-12T
How it was run: as §1

LC-2-ad = system: LC-2-ad
How it was run: as §1

PC-3 [JPC-3] = system: PC-3 [JPC-3]
How it was run: as §1

Compound: O=c1[nH]c2ccccc2n1C1CCN(CCCC(c2ccc(F)cc2)c2ccc(F)cc2)CC1 [Pimozide] + O=C(c1cc(Cc2n[nH]c(=O)c3ccccc23)ccc1F)N1CCN(C(=O)C2CC2)CC1 [Olaparib] (partner 8 µM)
- relative viability (NCI-H1755; first compound 0.8 µM): 0.845
- relative viability (NCI-H1755; first compound 2.53 µM): 0.825
- relative viability (NCI-H1755; first compound 8 µM): 0.776
- relative viability (EMC-BAC-2; first compound 0.08 µM): 0.506
- relative viability (EMC-BAC-2; first compound 0.253 µM): 0.463
- relative viability (EMC-BAC-2; first compound 0.8 µM): 0.455
- relative viability (EMC-BAC-2; first compound 2.53 µM): 0.456
- relative viability (EMC-BAC-2; first compound 8 µM): 0.448
- relative viability (LK-2; first compound 0.08 µM): 0.643
- relative viability (LK-2; first compound 0.253 µM): 0.687
- relative viability (LK-2; first compound 0.8 µM): 0.765
- relative viability (LK-2; first compound 2.53 µM): 0.693
- relative viability (LK-2; first compound 8 µM): 0.691
- relative viability (NCI-H2228; first compound 0.08 µM): 0.759
- relative viability (NCI-H2228; first compound 0.253 µM): 0.699
- relative viability (NCI-H2228; first compound 0.8 µM): 0.555
- relative viability (NCI-H2228; first compound 2.53 µM): 0.45
- relative viability (NCI-H2228; first compound 8 µM): 0.344
- relative viability (NCI-H1944; first compound 0.08 µM): 0.427
- relative viability (NCI-H1944; first compound 2.53 µM): 0.35
- relative viability (NCI-H1944; first compound 8 µM): 0.413
- relative viability (NCI-H2347; first compound 0.08 µM): 0.663
- relative viability (NCI-H2347; first compound 0.253 µM): 0.556
- relative viability (NCI-H2347; first compound 0.8 µM): 0.577
- relative viability (NCI-H2347; first compound 2.53 µM): 0.519
- relative viability (NCI-H2347; first compound 8 µM): 0.587
- relative viability (NCI-H661; first compound 0.08 µM): 0.735
- relative viability (NCI-H661; first compound 0.253 µM): 0.699
- relative viability (NCI-H661; first compound 0.8 µM): 0.704
- relative viability (NCI-H661; first compound 2.53 µM): 0.675
- relative viability (NCI-H661; first compound 8 µM): 0.587
- relative viability (LXF-289; first compound 0.08 µM): 1.09
- relative viability (LXF-289; first compound 0.253 µM): 1.04
- relative viability (LXF-289; first compound 0.8 µM): 1.01
- relative viability (LXF-289; first compound 2.53 µM): 0.937
- relative viability (LXF-289; first compound 8 µM): 1.03
- relative viability (NCI-H1915; first compound 0.08 µM): 0.259
- relative viability (NCI-H1915; first compound 0.253 µM): 0.241
- relative viability (NCI-H1915; first compound 2.53 µM): 0.246
- relative viability (NCI-H1915; first compound 8 µM): 0.243
- relative viability (CAL-12T; first compound 0.08 µM): 0.672
- relative viability (CAL-12T; first compound 0.253 µM): 0.687
- relative viability (CAL-12T; first compound 0.8 µM): 0.709
- relative viability (CAL-12T; first compound 2.53 µM): 0.698
- relative viability (CAL-12T; first compound 8 µM): 0.623
- relative viability (LC-2-ad; first compound 0.08 µM): 0.68
- relative viability (LC-2-ad; first compound 0.253 µM): 0.731
- relative viability (LC-2-ad; first compound 0.8 µM): 0.69
- relative viability (LC-2-ad; first compound 2.53 µM): 0.668
- relative viability (LC-2-ad; first compound 8 µM): 0.673
- relative viability (PC-3 [JPC-3]; first compound 0.253 µM): 1.09
- relative viability (PC-3 [JPC-3]; first compound 0.8 µM): 1.1
- relative viability (PC-3 [JPC-3]; first compound 2.53 µM): 1.08
- relative viability (PC-3 [JPC-3]; first compound 8 µM): 1
